Results on three compounds are retold here after patent publication US20140199714A1, “METHOD FOR DETECTING CANCER CELLS METASTASIZING INTO SENTINEL LYMPH NODE” (SHINSHU UNIVERSITY, priority 2008, published 2014).

Assay [1] concerns F-actin in LECs derived from human collecting lymph vessel. The assay is described as follows: Staining of cytoskeletal protein F-actin in human LECs. The class given is cell-based. The following applies: 10 ng/mL TNF-α; 1 ng/mL and 10 ng/mL IL-1β; 2 hrs. at 37° C.; vs negative control. The method, then:
LECs derived from human collecting lymph vessel, which were transplanted into a culture system, were plated on glass slide, and repeatedly subcultured to confluence. Stimulating factors of 10 ng/mL of tumor necrosis factor-α (TNF-α) of Catalog No. T-0157 (available from SIGMA, US), 1 ng/mL and 10 ng/mL of interleukin-1β (IL-1β) of Catalog No. 200-01B (available from PeproTech, US) were respectively dissolved in EBM-2 containing 3% FBS of Catalog No. CC-3156 (available from Sankyo Junyaku Co., Ltd., Japan) and added onto the cells, and then the cells were incubated for 2 hrs. at 37° C. They were fixed with 3.7% formalin. They were washed with PBS solution, and then still stood in PBS solution containing 0.1% TRITON X-100 of Catalog No. X-100 (available from SIGMA, US) for 5 min. Additionally they were washed with PBS solution, and then phalloidin-FITC antibody of Catalog No. P-5282 (available from SIGMA, US) diluted 500 times with PBS solution containing 0.1% BSA was added thereto. They were still stood for 2 hrs. at room temperature. After they were washed with PBS solution, and mounted in MOBI GLOW MOUNTING MEDIUM. Also negative control was similarly prepared except for using no stimulating factor. […] The LECs of the negative control without the stimulating factor indicate obscure green fluorescence, and there were few expression of F-actin.

The test system of the next assay is E-selectin on human LECs. Kind of assay: Immunohistochemical expression of E-selectin on cultured human LECs. The format is cell-based. The following applies: 18 hrs.-stimulation with 10 ng/mL TNF-α or 100 ng/mL LPS. The protocol: (§1) Using an indirect immunohistochemical technique, the inventors examined the effects of the supernatants of culture medium of two kinds of carcinoma cells, MDA-MB-231 and MCF-7, on the expression of adhesion molecules such as E-selectin, P-selectin, vascular cell adhesion molecule (VCAM)-1, and intercellular adhesion molecule (ICAM)-1 on the human LECs. The carcinoma cells were plated in DMEM/F12 with 10% FBS, which was replaced the following day with DMEM/F12 with 3% FBS, and then collected after overnight culture. The collected solution was centrifuged at 2,000 rpm for 5 min. at 4° C. To examine the effects of the supernatants on the expression of the adhesion molecules on the human LECs, 1 mL of each collected solution was added to starvation culture medium, EBM-2 with 3% FBS of the human LECs, and then stimulated for 48 hrs. on the cells. In some experiments, the supernatant solutions at different concentrations (1/100 or 1/10,000 dilution) were constructed with appropriate volumes of DMEM/F12 with 3% FBS.
(§2) Indirect immunohistochemical studies were performed on the cultured LECs seeded or glass slides coated with type I collagen, and then the cells were fixed with 3.3% formalin in phosphate-buffered saline solution (PBS), for 20 min. at room temperature. The cells were washed three times with PBS, and then incubated overnight at 4° C. with primary polyclonal human antisera to E-selectin/CD62E (dilution 10 μg/mL, available from R&D Systems, US), P-selectin/CD62P (dilution 10 μg/mL, available from R&D Systems, US), VCAM-1/CD106 (dilution 10 μg/mL, available from R&D Systems, US), and ICAM-1/CD54 (dilution 10 μg/mL, available from R&D Systems, US).
(§3) Before primary staining, the cultured cells were permeabilized with 0.1% TRITON-X. After washing three times in PBS, the cells were incubated for 1 hr. at room temperature with 1:100 diluted ALEXA FLUOR 488 donkey anti-mouse IgG (available from Invitrogen, US). The nuclei of cultured cells were counter-stained and mounted with PROLONG GOLD antifade reagent with 4′-6-diamidine-2-phenylindole (DAPI) (available from Molecular Probes, US), examined by a fluorescent microscope (Leica, Switzerland), and photographed.
(§4) Immunohistochemistry was performed on the cultured human LECs or the fresh-frozen SLNs isolated from the breast cancer patients. In brief, the cultured LECs were fixed with 10% formalin in the phosphate-buffered saline solution (PBS) at room temperature. The cells were incubated for 4 hrs. at room temperature with primary polyclonal human antisera platelet-endothelial cell adhesion molecule (PECAM)-1 (dilution 1:100, available from BD Biosciences, US), lymphatic vessel endothelial hyaluronan receptor (LYVE)-1 (dilution 1:50, available from RELIATech, Germany), PROX-1 (dilution 1:50, available from AngioBio, US), podoplanin (dilution 1:50, available from AngioBio, US), vascular endothelium growth factor receptor 3 (VEGF R3) (dilution 1:50, available from Santa Cruz, US), E-selectin/CD62E (dilution 1:50, available from R&D systems, US), P-selectin/CD62P (dilution 1:50, available from R&D systems, US), vascular cell adhesion molecule (VCAM)-1/CD106 (dilution 1:50, available from R&D systems, US), and intercellular adhesion molecule (ICAM)-1/CD54 (dilution 1:50, available from R&D systems, US). Before the staining, permeabilization of the cultured cells with 0.1% TRITON-X was performed. Then, the cells were stained using the following antibodies: ALEXA FLUOR 488 chicken anti-rabbit IgG or ALEXA FLUOR 488 donkey anti-mouse IgG (available from Invitrogen, US). The nuclei of the cultured cells were counter-stained and mounted with ProLong Gold antifade reagent with 4′-6-diamidine-2-phenylindole (DAPI) (available from Molecular Probes, US). The cultured cells were examined by a fluorescent microscope (available from Leica, Germany) and photographed. […]

The subject of another assay is P-selectin on human LECs. Kind of assay: Immunohistochemical expression of P-selectin on cultured human LECs. The format is cell-based. The following applies: 18 hrs.-stimulation with 10 ng/mL TNF-α or 100 ng/mL LPS. The method, then:
as §1, §2
Before primary staining, the cultured cells were permeabilized with 0.1% TRITON-X. After washing three times in PBS, the cells were incubated for 1 hr. at room temperature with 1:100 diluted ALEXA FLUOR 488 donkey anti-mouse IgG (available from Invitrogen, US). […]

In the next assay the test system is VCAM-1 on human LECs. Kind of assay: Immunohistochemical expression of VCAM-1 on cultured human LECs. The format is cell-based. The settings on record: 18 hrs.-stimulation with 10 ng/mL TNF-α or 100 ng/mL LPS. The protocol:
as §1, §2, §3, §4

For another assay, the system named is ICAM-1 on human LECs. The assay is described as follows: Immunohistochemical expression of ICAM-1 on cultured human LECs. The class given is cell-based.
Assay [2] has as its system attachment of carcinoma cells to human LECs. Kind of assay: In vitro human LEC attachment assay (ATP or MDA-MB-231 supernatant stimulation). The class given is cell-based. The settings on record: 48 hrs. stimulation (10^−7M ATP or MDA-MB-231 supernatant) vs DMEM/F12 Ham negative control; p<0.01; n=5. The protocol:
The human LECs were plated to form a monolayer on type I collagen-coated 35 mm plates and incubated to confluence at 37° C. in 5% O2, 5% CO2, and 90% N2. The LECs were kept in serum-starved medium of EBM-2 with 3% FBS. Selected plates were treated with 10^−7M ATP or the supernatant of culture medium of MDA-MB-231 cells for 48 hrs. In some experiments, 10^−6M suramin was simultaneously added to the plates during 48 hrs. treatment with 10^−7M ATP or the culture medium supernatant of MDA-MB-231 cells.
In some experiments, the plates were also treated with anti-human-ICAM-1 antibody (available from R&D Systems, US) for 30 min after 48 hrs. treatment with the culture medium supernatant of MDA-MB-231 or 10^−7M ATP. Breast carcinoma cells stained with PKH26 fluorescent dye (available from SIGMA, US) were then plated at 5×10^4 cells per plate and incubated for 30 min. at 37° C. Unbound cells were removed by aspiration and the plates washed with DMEM/F12 three times. Attachment was quantitated by counting cells under ×100 magnification using a microscope (available from Leica, Switzerland).

The next assay concerns prostate cancer cells. The following applies: via P2 receptors; cited from earlier work.

Regarding “IL-1β: interleukin-1β, stimulating factor”, in assay [1], the “expression of F-actin (phalloidin-FITC fluorescence)” value is recorded as “increase of expression of F-actin”.
Consider TNF-α, for which the “expression of E-selectin on human LECs (positive controls)” value in the assay on E-selectin on human LECs was “marked expression”. Further, the “expression of P-selectin on human LECs (positive controls)” value with P-selectin on human LECs is given as “marked expression”. For the same compound, the “expression of VCAM-1 on human LECs (positive controls)” value in the assay with VCAM-1 on human LECs was “marked expression”. Besides, in assay [1], the “expression of F-actin (phalloidin-FITC fluorescence)” value was “increase of expression of F-actin”. In the assay with ICAM-1 on human LECs (18 hrs.-stimulation with 10 ng/mL TNF-α or 100 ng/mL LPS), the “expression of ICAM-1 on human LECs (positive controls)” value is “marked expression”.
For the compound `Nc1ncnc2c1ncn2[C@@H]1O[C@H](COP(=O)(O)OP(=O)(O)OP(=O)(O)O)[C@@H](O)[C@H]1O` [ATP], the “in vitro attachment of carcinoma cells to human LECs” value in assay [2] is “significant increase”. The “expression of ICAM-1 on human LECs” value in the assay on ICAM-1 on human LECs (10^−8 or 10^−7M ATP for 48 hrs.) is recorded as “marked expression”. The “inhibition of growth of prostate cancer cells in vitro” value in the assay on prostate cancer cells is given as “up to 90%”.
